What was measured:
H-2 Db = target: T1, H-2 Db (Mus musculus, UniProt P01899); assay: RMA-S binding assay (MHC stabilization, flow cytometry); details: for Concentration at FI=0.5: RMA-S cells loaded 16 to 18 h at 37° C, FI = fluorescence with peptide/without peptide - 1; for Binding to H-2 Db (in words): RMA-S cells, FIG. 1
T1 construct: enhance surface expression of the respective MHC class I molecules on these cells by stabilizing the peptide-MHC complex; endogenous in cells; host or cells: RMA-S (H-2b) cells
T1 sequence (P01899 25-362): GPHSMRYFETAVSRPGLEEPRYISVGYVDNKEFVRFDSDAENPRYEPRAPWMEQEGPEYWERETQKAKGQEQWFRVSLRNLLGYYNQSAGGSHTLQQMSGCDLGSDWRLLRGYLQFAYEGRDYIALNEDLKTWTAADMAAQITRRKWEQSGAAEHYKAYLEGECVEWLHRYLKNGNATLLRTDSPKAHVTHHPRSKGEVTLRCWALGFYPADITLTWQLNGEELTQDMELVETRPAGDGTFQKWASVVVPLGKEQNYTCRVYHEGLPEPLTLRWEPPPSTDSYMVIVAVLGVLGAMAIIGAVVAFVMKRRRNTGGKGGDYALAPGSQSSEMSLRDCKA
T1 sequence (P01887 21-119 partner): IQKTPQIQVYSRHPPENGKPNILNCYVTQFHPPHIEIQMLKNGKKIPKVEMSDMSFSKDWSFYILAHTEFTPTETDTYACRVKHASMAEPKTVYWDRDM
Protocol: FIG. 1 is a line graph illustrating results of an RMA-S binding assay. KDR2 and KDR3 bind efficiently to H-2 Db molecules. RMA-S cells were loaded with various peptides for 16 to 18 h at 37° C. Levels of surface class I molecules were assessed by flow cytometric analysis using mouse monoclonal antibodies specific for H-2 Db. FI=Fluoresce measurement after peptides stimulation/Fluoresce measurement without peptide-1. : KDR1, ▴: KDR2, : KDR3, ◯: wild type P53 264-272, : HPV 16 E7 49-57. HPV E7 49-57 and Human P53 264-272 serve as positive and negative control respectively. The results shown here are representative of three separate experiments.
To test the binding affinity of these peptides to H-2 Db, an RMA-S binding experiment was performed, and the FI value in the assay was measured. […] The RMA-Binding assays were performed as previously described (Lyman et al., J. Virol. 76:3125-3134, 2002). Briefly, synthetic peptides were dissolved in dimethyl sulfoxide before dilution. For MHC-binding assays, RMA-S cells were loaded with various peptides for 16 to 18 h at 37° C. Levels of surface class I molecules were assessed by flow cytometric analysis (FACScan; Becton Dickinson) using mouse monoclonal antibodies specific for H-2 Db (Southern Biotech, clone No. 28-14-8). FI=Fluorescence after peptides stimulation/Fluorescence without peptide-1.
Previous data have shown that the HPV16E7 49-57 can bind to H-2 Db molecules efficiently and induce a strong CTL response in B6 mice (Feltkamp et al., Eur. J. Immunol. 23:2242-2249, 1993). HPV16E7 49-57 peptide was used as a positive control; and the human P53 264-272, known to bind HLA-A2 but not H-2 Db, was used as a negative control (FIG. 1).

[1] = test system: IFN-γ secreting spleen cells / DLN cells; assay: IFN-γ Elispot assay on splenocytes or draining lymph node cells of peptide-vaccinated mice; format: in vivo, C57BL/6 mice; details: for IFN-γ secreting cells per million fresh DLN cells: stimulated with syngeneic VEGFR-2/KDR expressing H5V cells, FIG. 2C
Description: FIGS. 2A-C are bar graphs representing the results of IFN-Eli spot assays. Four groups of mice (5 mice per group) were vaccinated with different peptides (KDR1, KDR2, KDR3). Mice were sacrificed, spleen or drained lymph nodes (DLN) cells prepared as described in methods section served as effectors. Syngeneic EL4 cells (3,000 rads) pulsed with peptides or H5V cells after treated with MMC served as stimulators. Irradiated EL4 without peptide or MMC treated allogeneic bEND3 cells as control. Dot bar: EL4 pulsed with irrelevant peptide as negative control; Solid bar: EL4 pulsed with KDR2 or KDR3 respectively; Open bar: EL4 without any peptide; A. Results of fresh spleen cells; B. Results of spleen cells after 1 week restimulation in vitro; C. Cells from fresh drained lymph nodes stimulated with H5V or bEND3 cells.
Mice were immunized with selected peptide, together with murine GM-CSF and anti-mouse CD40 as adjuvants. An emulsion containing 50 μl Incomplete Freud's Adjuvants (IFA, Sigma) with or without 100 […] of peptide and 5 μg murine GM-CSF (Pepro Tech), 20 μg anti-murine CD40 monoclonal antibody (Southern Biotech, Clone number 1C10) was prepared in a final volume of 100 μl. Subcutaneous injections were performed on the tails of the mice with 1 ml syringes and 30 gauge needles. For the Matrigel Plug Assay, two boosts were injected at 4 week intervals.
IFN-γ Elispots assay was performed on draining lymph nodes cells (DLN) or splenocytes collected 2 weeks after vaccination to evaluate the antigen specific immune response against the VEGFR-2/KDR peptides. Elispot plates (Millipore, Bedford, Mass.) were coated with 8 μg of anti-gamma interferon (IFN-γ) antibody per ml in sterile phosphate-buffered saline (PBS) overnight at 4° C. Plates were washed and then blocked with RPMI 1640 with 10% FBS. Fresh splenocytes or cells after 1 week in vitro restimulation were used as effectors. 1 or 5×10^5 effector cells were co-cultured overnight with or without 2×10^5 irradiated (3,000 rads) EL4 cells in 200 μl media at 37° C., 5% CO2 in the presence of appropriate concentration of peptide. When H5V and bEND3 cells in stead of EL4 were used as stimulators, they were treated with 0.1 mg/ml mitomycin C (Sigma, St. Louis) for half an hour at 37° C., then wash three times with PBS. 5×10^4H5V or bEND3 cells were co-cultured overnight with 2×10^5 draining lymph nodes cells. Spots were developed as previously described using biotin-conjugated anti-cytokine antibodies (Endogen, Boston, Mass.) and streptavidin-horseradish peroxidase in 1% BSA-PBS.

[2] = test system: EL4 cells pulsed with peptides; assay: 4-hour 51Cr release assay, CTLs from immunized mice, EL4 targets; format: cell-based, mouse; details: E:T ratio 50:1; for Percentage of lyses by induced CTLs, control: control for EL4 pulsed with peptide; for Percentage of lyses by induced CTLs: targets EL4 pulsed with the vaccinated peptide
Protocol: (§1) FIGS. 4A-D are line graphs illustrating the results of standard 4 hr ^51Cr release test. Three weeks after immunization, spleen cells were prepared from immunized mice (4-5 mice per group) and restimulated with vaccinated peptides in a 24-well plate in the presence of RPMI 1640 (Invitrogen) with 10% FCS. 10% T-stim was added 48 hours later into the culture media and the cells were incubated for 5 days at 37° C. The CTL activity was tested in a 4-hour ^51Cr release assay. Target cells include VEGFR-2/KDR+H5V (H-2d) and bEND3 (H-2b) endothelial cells, VEGFR-2/KDR-EL4 cells pulsed with peptides or EL4 alone. The percentage of specific lysis was calculated using the formula: (experimental release−spontaneous release)/(maximum release−spontaneous release)×100. Upper panel: effector cells from mice immunized with KDR2, Lower panel: effectors from KDR3 immunized mice.
(§2) Chromium (^51Cr) Release Assays were used to determine whether T cells identified as binding to VEGFR-2/KDR specifically targeted endothelial cells. Mice were vaccinated twice with 5 μg GM-CSF, 20 μg anti-CD40 and 100 μg peptide per mice. Briefly, spleen cells were prepared from immunized mice (4-5 mice per group) and restimulated with the vaccinated peptides in 24-well plates in RPMI 1640 (Invitrogen) with 10% FCS. Forty-eight hours later, 10% T-stim (BD Bioscience) was added into the culture media. CTL activity was tested in a 4-hour ^51Cr release assay 5 days later. VEGFR-2/KDR+syngeneic H5V (H-2d), allogeneic bEND3 (H-2b) endothelial cells and VEGFR-2/KDR syngeneic EL4 cells pulsed with peptides or EL4 alone served as target cells. The percentage cytotoxicity was calculated using the formula: (experimental release−spontaneous release)/(maximum release−spontaneous release)×100.

H5V endothelial cells = assay: 4-hour 51Cr release assay, CTLs from immunized mice, endothelial cell targets; format: cell-based, mouse; details: for Percentage of lyses by induced CTLs, control: control for H5V; for Percentage of lyses by induced CTLs, control / Percentage of lyses by induced CTLs: E:T ratio 50:1; for Lysis of H5V cells and peptide-pulsed EL4 by induced CTLs (in words): not bEND3 or EL4 alone, FIG. 4; for Percentage of lyses by induced CTLs: targets H5V
Protocol: as §1, §2

HLA-A2 = target: T2, HLA-A2 (Homo sapiens, UniProt P04439, D140Y/D185E/D98H/E176V/E277Q/G131W/G231S/I119V/I121R/I166T/I218V/L300P/L318F/N151K/N90K/P208A/P217A/Q86G/Q94H/R138H/R169H/T345S); assay: T2 binding assay (HLA-A2 stabilization); details: T2 cells, FIG. 7
T2 construct: endogenous in cells; host or cells: T2 cells
Description: The ability of any of the above described peptides to bind MHC Class I can be confirmed using assays available in the art. For example, the ability of a murine VEGFR-2/KDR peptide to bind a mouse Class I molecule, such as H-2 Db can be determined in a MHC stabilization assay employing RMA-S cells as described in Lyman et al., J. Virol. 76:3125-3134, 2002, and in the EXAMPLES Section below. The ability of a human VEGFR-2/KDR peptide to bind a human Class I molecule, such as an HLA-A2 protein can be evaluated in a T2 MHC binding assay as described by Cerundolo et al., Nature 342:449-452, 1990. In brief, T2 cells are cultured in RPMI1640 with 10% FBS, and grown in 5% CO2 at 37° C. […] The level of stabilized HLA-A2 on the surface of the T2 cells is detected using the pan HLA class I monoclonal antibody W6/32 (European Collection of Animal Cell Cultures (ECACC), Porton Down, Salisbury) that recognizes stabilized HLA-A2 complexes. The primary monoclonal antibody can be labeled or can be detected using, e.g., a labeled goat antimouse IgG (Cambridge Biosciences, Cambridge, United Kingdom) as the second layer. Samples are fixed in 1% paraformaldehyde in PBS prior to analysis and analyzed on a Becton Dickinson FACSCAN®. […]

Substance | Concentration at FI=0.5 (H-2 Db) | Percentage of lyses by induced CTLs, control [2] | Percentage of lyses by induced CTLs [2] [%] | IFN-γ secreting fresh spleen cells relative to irrelevant HPV E7 peptide / background ([1]; FIG. 2A) | IFN-γ secreting cells per million fresh DLN cells [1] [per million cells] | Binding to H-2 Db (in words) (H-2 Db) | Percentage of lyses by induced CTLs, control (H5V endothelial cells) [%] | Lysis of H5V cells and peptide-pulsed EL4 by induced CTLs (in words) (H5V endothelial cells) | Percentage of lyses by induced CTLs (H5V endothelial cells) [%] | also measured
HPV16E7 49-57: Human Papilloma Virus 16E7 49-57 peptide, known H-2 Db binder, positive control (RAHYNIVTF) [reference compound] | about 12.5 μM |  |  |  |  |  |  |  |  | 
LLSEKNVVKI [KDR1, murine VEGFR-2/KDR peptide, location 1033-1042] |  |  |  |  |  |  |  |  |  | IFN-γ secreting cells relative to background after 1 week in vitro culture with the vaccinated peptide ([1]; spleen cells restimulated 1 week in vitro, FIG. 2B): remained negative
VILTNPISM [KDR2, murine VEGFR-2/KDR peptide, location 400-408] | about 24 μM | about 8% | 25 | about 50 times | 360 | bind well | ~1 | can lyse | 28 | 
FSNSTNDILI [KDR3, murine VEGFR-2/KDR peptide, location 615-624] | about 3 μM | 0% | 21 | about 6 times | 161 | bind well | 3 | can lyse | 13 | Number of IFN-γ secreting fresh spleen cells after pulsing with peptide ([1]; fresh spleen cells of vaccinated mice, FIG. 2A): 176
P53 264-272: human P53 264-272 peptide, binds HLA-A2 but not H-2 Db, negative control [reference compound] | > 200 µM |  |  |  |  | does not bind |  |  |  | 
AMFFWLLLV [KDR775, human VEGFR-2/KDR peptide] |  |  |  |  |  |  |  |  |  | Affinity for MHC molecules relative to the other peptides (in words) (HLA-A2): substantially higher affinity

From patent US8378071B2, “Peptide epitopes of VEGFR-2/KDR that inhibit angiogenesis” (The United States of America as Represented by the …, priority 2005, dated 2013)
